Tested on: Wheat plants (Trificum aestivum cv. Monopol)
Assay: Growth-promoting effect on wheat plants after foliar treatment
Assay type: in vivo
Conditions: for Shoot-DW / Shoot-FW: 750 l/ha, greenhouse, mean of six pots with ten plants; for Shoot-DW / Shoot-FW / Shoot-DW % of control / Shoot-FW % of control: harvest after 18 days; for Shoot-DW % of control / Shoot-FW % of control: control = 100.0; for plant health (higher yields and increased plant vigor based on fresh- and dry weights) / tillering: wheat, foliar treatment, 15 and 7.5 g ai/ha
Experimental: Wheat plants (Trificum aestivum cv. Monopol) were grown in soil with ten plants per pot (13 cm diameter) under greenhouse conditions. Plants at the 2nd leaf stage were sprayed with aqueous solutions of formulated compounds: • Compound 1=4-Fluoro-N-[2-(2-fluoro-benzoylamino)-1-methylcarbamoyl-ethyl]-2-trifluoromethyl-benzamide • Compound 2=4-Fluoro-N-[2-(3-fluoro-2-methyl-phenyl)-2-hydroxy-1-methylcarbamoyl-ethyl]-2-trifluoromethyl-benzamide The compounds were applied at two different dose rates (15 and 7.5 g ai/ha) and the spray volume was 750 l/ha. Six replicate pots with ten plants each were used per treatment. After 18 days plants were harvested and growth parameters were determined. The recorded parameters were fresh weight (FW) and dry weight (DW). Mean values of results, standard deviation (SD) and percentage to control were calculated.

[1] = 7.5 g ai/ha foliar spray at 2nd leaf stage
[2] = 15 g ai/ha foliar spray at 2nd leaf stage

| SMILES | Shoot-DW [1] | Shoot-FW [1] | Shoot-DW % of control (7.5 g ai/ha foliar spray) | Shoot-FW % of control (7.5 g ai/ha foliar spray) | Shoot-DW [2] | Shoot-FW [2] | Shoot-DW % of control (15 g ai/ha foliar spray) | Shoot-FW % of control (15 g ai/ha foliar spray) | plant health (higher yields and increased plant vigor based on fresh- and dry weights) | tillering |
| --- | --- | --- | --- | --- | --- | --- | --- | --- | --- | --- |
| CNC(=O)C(CNC(=O)c1ccccc1F)NC(=O)c1ccc(F)cc1C(F)(F)F (centres unmarked) [Compound 1, 4-Fluoro-N-[2-(2-fluoro-benzoylamino)-1-methylcarbamoyl-ethyl]-2-trifluoromethyl-benzamide] | 3.8 g | 40.6 g | 134.9 % of control | 132.7 % of control | 3.7 g | 38.8 g | 131.0 % of control | 126.9 % of control | strongly increase the plant health | increase in tillering |
| CNC(=O)C(NC(=O)c1ccc(F)cc1C(F)(F)F)C(O)c1cccc(F)c1C (centres unmarked) [Compound 2, 4-Fluoro-N-[2-(3-fluoro-2-methyl-phenyl)-2-hydroxy-1-methylcarbamoyl-ethyl]-2-trifluoromethyl-benzamide] | 3.9 g | 40.2 g | 138.6 % of control | 131.4 % of control | 3.9 g | 40.6 g | 138.2 % of control | 132.8 % of control | strongly increase the plant health | increase in tillering |
